Measured values published in US10323038B2, “Pyrazole compounds and methods of making and using same” (ABIDE THERAPEUTICS, INC., priority 2015, dated 2019).
pIC50: −log10 of the molar value.

Legend:
FAAH = FAAH (Mus musculus (Mouse), UniProt O08914); experiment: In vitro competitive activity-based protein profiling, FAAH (mouse); assay type: biochemical; conditions: for inhibition at 1 µM: read-out: FAAH % inh. 1 μM (mouse)
Procedure: (§1) In Vitro Competitive Activity-Based Protein Profiling.
(§2) Proteomes (mouse brain membrane fraction or cell lysates for mouse assays; human prefrontal cortex or cell membrane fractions for human assays) (50 μL, 1.0 mg/mL total protein concentration) were preincubated with varying concentrations of inhibitors at 37° C. After 30 min, FP—Rh or HT-01 (1.0 μL, 50 μM in DMSO) was added and the mixture was incubated for another 30 min at 37° C. Reactions were quenched with SDS loading buffer (15 μL-4×) and run on SDS-PAGE. Following gel imaging, serine hydrolase activity was determined by measuring fluorescent intensity of gel bands corresponding to MAGL and FAAH using ImageJ 1.43u software.

MAGL = MAGL (Mus musculus (Mouse), UniProt O35678); experiment: In vitro competitive activity-based protein profiling, MAGL (mouse); assay type: biochemical; conditions: for inhibition at 1 µM: read-out: MAGL % inh. 1 μM (mouse)
Sequence of MAGL (O35678 whole entry): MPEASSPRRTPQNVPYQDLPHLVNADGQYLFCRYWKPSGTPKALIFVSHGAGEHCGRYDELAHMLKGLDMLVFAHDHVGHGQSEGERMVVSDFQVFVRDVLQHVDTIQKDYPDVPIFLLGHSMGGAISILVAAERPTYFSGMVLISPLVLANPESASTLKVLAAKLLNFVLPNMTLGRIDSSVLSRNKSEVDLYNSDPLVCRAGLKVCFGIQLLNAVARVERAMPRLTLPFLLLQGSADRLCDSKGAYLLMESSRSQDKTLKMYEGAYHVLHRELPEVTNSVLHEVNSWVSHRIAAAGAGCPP
Procedure: as §1, §2

Sequence of FAAH (O08914 whole entry): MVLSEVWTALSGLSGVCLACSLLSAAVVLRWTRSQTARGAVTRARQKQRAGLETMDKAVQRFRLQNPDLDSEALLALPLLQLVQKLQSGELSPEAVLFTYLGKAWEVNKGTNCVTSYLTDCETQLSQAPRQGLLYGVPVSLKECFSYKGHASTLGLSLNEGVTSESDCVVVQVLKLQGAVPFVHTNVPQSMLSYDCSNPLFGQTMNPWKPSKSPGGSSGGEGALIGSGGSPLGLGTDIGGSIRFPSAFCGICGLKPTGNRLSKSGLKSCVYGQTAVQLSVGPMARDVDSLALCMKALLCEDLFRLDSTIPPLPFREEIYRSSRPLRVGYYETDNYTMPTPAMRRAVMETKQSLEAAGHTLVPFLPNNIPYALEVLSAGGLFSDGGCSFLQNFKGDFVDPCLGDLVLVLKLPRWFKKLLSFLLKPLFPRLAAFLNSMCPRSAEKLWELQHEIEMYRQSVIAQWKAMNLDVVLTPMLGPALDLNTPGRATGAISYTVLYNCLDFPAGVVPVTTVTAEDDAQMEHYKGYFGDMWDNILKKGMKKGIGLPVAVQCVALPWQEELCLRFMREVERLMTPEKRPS

Row | Structure (SMILES) | inhibition at 1 µM (FAAH) [%] | inhibition at 1 µM (MAGL) [%] | pIC50 (FAAH) | pIC50 (MAGL)
1 | CC(=O)N(C)c1cnn(C(=O)N2CCC3(CCN(Cc4cc(C(F)(F)F)ccc4C(F)(F)F)C3)C2)c1 (stereo not drawn) [Example 72, N-(1-(7-(2,5-bis(trifluoromethyl)benzyl)-2,7-diazaspiro[4.4]nonane-2-carbonyl)-1H-pyrazol-4-yl)-N-methylacetamide] | ≥ 75 | ≥ 75 |  | 
2 | CC(=O)N(C)c1cnn(C(=O)N2CC3CN(Cc4ccc(C)cc4)CC3C2)c1 (stereo not drawn) [Example 91, N-methyl-N-(1-(5-(4-methylbenzyl)octahydropyrrolo[3,4-c]pyrrole-2-carbonyl)-1H-pyrazol-4-yl)acetamide] | ≥ 75 | 50 to 75 | 6.00 to 7.00 | 6.00 to 7.00
3 | CC(=O)N(C)c1cnn(C(=O)N2CCC3(CC2)CN(Cc2ccccc2C)C3)c1 [Example 42, N-methyl-N-(1-(2-(2-methylbenzyl)-2,7-diazaspiro[3.5]nonane-7-carbonyl)-1H-pyrazol-4-yl)acetamide] | ≥ 75 | ≥ 75 |  | 
4 | CC(=O)N(C)c1cnn(C(=O)N2CCC3(CC2)CN(Cc2ccc(F)cc2)C3)c1 [Example 31, N-(1-(2-(4-fluorobenzyl)-2,7-diazaspiro[3.5]nonane-7-carbonyl)-1H-pyrazol-4-yl)-N-methylacetamide] | 25 to 50 | ≥ 75 |  | 
5 | CC(=O)N(C)c1cnn(C(=O)N2CC3(CCN(Cc4ccccc4Cl)CC3)C2)c1 [Example 86, N-(1-(7-(2-chlorobenzyl)-2,7-diazaspiro[3.5]nonane-2-carbonyl)-1H-pyrazol-4-yl)-N-methylacetamide] | ≥ 75 | 50 to 75 |  | 
6 | CC(=O)N(C)c1cnn(C(=O)N2CC3(CCN(Cc4ccc(N5CCOCC5)cc4Cl)CC3)C2)c1 [Example 22, N-(1-(7-(2-chloro-4-morpholinobenzyl)-2,7-diazaspiro[3.5]nonane-2-carbonyl)-1H-pyrazol-4-yl)-N-methylacetamide] | ≥ 75 | 25 to 50 | 6.00 to 7.00 | 5.00 to 6.00
7 | CC(=O)N(C)c1cnn(C(=O)N2CC3(CCN(Cc4cccc(Cl)c4)CC3)C2)c1 [Example 85, N-(1-(7-(3-chlorobenzyl)-2,7-diazaspiro[3.5]nonane-2-carbonyl)-1H-pyrazol-4-yl)-N-methylacetamide] | ≥ 75 | 50 to 75 |  | 
8 | CC(=O)N(C)c1cnn(C(=O)N2CC3CN(Cc4cc(N5CCOCC5)cc(C(F)(F)F)c4)CC3C2)c1 (stereo not drawn) [Example 114, N-methyl-N-(1-(5-(3-morpholino-5-(trifluoromethyl)benzyl)octahydropyrrolo[3,4-c]pyrrole-2-carbonyl)-1H-pyrazol-4-yl)acetamide] | ≥ 75 | ≥ 75 | ≥ 7.00 | ≥ 7.00
9 | CC(=O)N(C)c1cnn(C(=O)N2C[C@H]3C[C@@H](NCc4ccccc4Cl)C[C@H]3C2)c1 [Example 133, N-(1-(cis-5-(2-chlorobenzylamino)octahydrocyclopenta[c]pyrrole-2-carbonyl)-1H-pyrazol-4-yl)-N-methylacetamide] | ≥ 75 | 25 to 50 |  | 
10 | CC(=O)N(C)c1cnn(C(=O)N2CCC3(CCN(Cc4cccc(C(F)(F)F)c4)C3)C2)c1 (single isomer, unassigned) [Example 65, N-methyl-N-(1-(7-(3-(trifluoromethyl)benzyl)-2,7-diazaspiro[4.4]nonane-2-carbonyl)-1H-pyrazol-4-yl)acetamide] | ≥ 75 | ≥ 75 | ≥ 7.00 | 6.00 to 7.00
11 | CC(=O)N(C)c1cnn(C(=O)N2CCC3(CCN(Cc4cc(C(F)(F)F)ccc4N4CCCC4)C3)C2)c1 (stereo not drawn) [Example 74, N-methyl-N-(1-(7-(2-(pyrrolidin-1-yl)-5-(trifluoromethyl)benzyl)-2,7-diazaspiro[4.4]nonane-2-carbonyl)-1H-pyrazol-4-yl)acetamide] | 50 to 75 | ≥ 75 |  | 
12 | CC(=O)N(C)c1cnn(C(=O)N2CC3CN(Cc4ccc(N5CCOCC5)cc4C(F)(F)F)CC3C2)c1 (stereo not drawn) [Example 131, N-methyl-N-(1-(5-(4-morpholino-2-(trifluoromethyl)benzyl)octahydropyrrolo[3,4-c]pyrrole-2-carbonyl)-1H-pyrazol-4-yl)acetamide] | ≥ 75 | ≥ 75 | ≥ 7.00 | ≥ 7.00
13 | CC(=O)N(C)c1cnn(C(=O)N2CC3CN(Cc4ccc(C)cc4Cl)CC3C2)c1 (stereo not drawn) [Example 115, N-(1-(5-(2-chloro-4-methylbenzyl)octahydropyrrolo[3,4-c]pyrrole-2-carbonyl)-1H-pyrazol-4-yl)-N-methylacetamide] | ≥ 75 | ≥ 75 | ≥ 7.00 | ≥ 7.00
14 | CC(=O)N(C)c1cnn(C(=O)N2CCC3(CCN(Cc4cc(Cl)cc(N5CCOCC5)c4)C3)C2)c1 (stereo not drawn) [Example 63, N-(1-(7-(3-chloro-5-morpholinobenzyl)-2,7-diazaspiro[4.4]nonane-2-carbonyl)-1H-pyrazol-4-yl)-N-methylacetamide] | ≥ 75 | ≥ 75 |  | 
15 | CC(=O)N(C)c1cnn(C(=O)N2CC3(CCN(Cc4ccc(C(F)(F)F)cc4)CC3)C2)c1 [Example 20, N-methyl-N-(1-(7-(4-(trifluoromethyl)benzyl)-2,7-diazaspiro[3.5]nonane-2-carbonyl)-1H-pyrazol-4-yl)acetamide] | 50 to 75 | 25 to 50 |  | 

Other lines, results leading:

Row | inhibition at 1 µM (FAAH) [%] | inhibition at 1 µM (MAGL) [%] | pIC50 (FAAH) | pIC50 (MAGL) | Structure (SMILES)
16 | 0 to 25 | ≥ 75 |  |  | CC(=O)N(C)c1cnn(C(=O)N2CCN(Cc3cccc(N4CCOCC4)c3)CC2)c1 [Example 210, N-methyl-N-(1-(4-(3-morpholinobenzyl)piperazine-1-carbonyl)-1H-pyrazol-4-yl)acetamide]
17 | ≥ 75 | ≥ 75 | ≥ 7.00 | ≥ 7.00 | CC(=O)N(C)c1cnn(C(=O)N2CCC3(CCN(Cc4ccc(-c5ccccc5)cc4C)C3)C2)c1 (stereo not drawn) [Example 232, N-methyl-N-(1-(7-((3-methyl-[1,1′-biphenyl]-4-yl)methyl)-2,7-diazaspiro[4.4]nonane-2-carbonyl)-1H-pyrazol-4-yl)acetamide]
18 | ≥ 75 | ≥ 75 |  |  | CC(=O)N(C)c1cnn(C(=O)N2C[C@H]3C[C@@H](N(C)Cc4cc(N5CCCC5)ccc4C(F)(F)F)C[C@H]3C2)c1 [Example 167, N-methyl-N-(1-(cis-5-(methyl(5-(pyrrolidin-1-yl)-2-(trifluoromethyl)benzyl)amino)octahydrocyclopenta[c]pyrrole-2-carbonyl)-1H-pyrazol-4-yl)acetamide]
19 | ≥ 75 | ≥ 75 |  |  | CC(=O)N(C)c1cnn(C(=O)N2CC3CN(Cc4ccc(-c5ccncn5)cc4Cl)CC3C2)c1 (stereo not drawn) [Example 272, N-(1-(5-(2-chloro-4-(pyrimidin-4-yl)benzyl)octahydropyrrolo[3,4-c]pyrrole-2-carbonyl)-1H-pyrazol-4-yl)-N-methylacetamide]
20 | ≥ 75 | ≥ 75 | ≥ 7.00 | ≥ 7.00 | CC(=O)N(C)c1cnn(C(=O)N2CC3CN(Cc4ccc5c(c4)OC(F)(F)O5)CC3C2)c1 (stereo not drawn) [Example 242, N-(1-(5-((2,2-difluorobenzo[d][1,3]dioxol-5-yl)methyl)octahydropyrrolo[3,4-c]pyrrole-2-carbonyl)-1H-pyrazol-4-yl)-N-methylacetamide]
21 | ≥ 75 | ≥ 75 | ≥ 7.00 | 6.00 to 7.00 | CC(=O)N(C)c1cnn(C(=O)N2CCC3(CCN(Cc4cc(Cl)ccc4Cl)C3)C2)c1 (racemic) [Example 175, N-(1-(7-(2,5-dichlorobenzyl)-2,7-diazaspiro[4.4]nonane-2-carbonyl)-1H-pyrazol-4-yl)-N-methylacetamide]
22 | 0 to 25 | 50 to 75 |  |  | CC(=O)N(C)c1cnn(C(=O)N2CCC3(CC2)CN(Cc2ccc(CN4CCOCC4)cc2)C3)c1 [Example 233, N-methyl-N-(1-(2-(4-(morpholinomethyl)benzyl)-2,7-diazaspiro[3.5]nonane-7-carbonyl)-1H-pyrazol-4-yl)acetamide]
23 | ≥ 75 | ≥ 75 |  |  | CC(=O)N(C)c1cnn(C(=O)N2C[C@H]3C[C@H](N(C)Cc4ccc(N5CCCC5)c(C(F)(F)F)c4)C[C@H]3C2)c1 [Example 159, N-methyl-N-(1-(trans-5-(methyl(4-(pyrrolidin-1-yl)-3-(trifluoromethyl)benzyl)amino)octahydrocyclopenta[c]pyrrole-2-carbonyl)-1H-pyrazol-4-yl)acetamide]
24 | ≥ 75 | ≥ 75 | ≥ 7.00 | ≥ 7.00 | CC(=O)N(C)c1cnn(C(=O)N2CC3CN(Cc4cccc(Oc5cccc(Cl)c5)c4)CC3C2)c1 (stereo not drawn) [Example 244, N-(1-(5-(3-(3-chlorophenoxy)benzyl)octahydropyrrolo [3,4-c]pyrrole-2-carbonyl)-1H-pyrazol-4-yl)-N-methylacetamide]
25 | ≥ 75 | ≥ 75 | ≥ 7.00 | ≥ 7.00 | CC(=O)N(C)c1cnn(C(=O)N2C[C@H]3C[C@@H](N(C)Cc4cc(Cl)ccc4C(F)(F)F)C[C@H]3C2)c1 [Example 161, N-(1-(cis-5-((5-chloro-2-(trifluoromethyl)benzyl)(methyl)amino)octahydrocyclopenta[c]pyrrole-2-carbonyl)-1H-pyrazol-4-yl)-N-methylacetamide]
